Tests used:
Assay in all cases: Bliss excess, mean over the matrix (fraction); higher = more synergy
[1] = test system: huH-1 (Hepatocellular Carcinoma)
Procedure, shortened: (§1)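 Cell lines in DMEM/F12 or RPMI with 10% FBS were plated in 1536-well plates, held 24 hours at 37°C, 5% CO2, then given two-drug dose matrices for 72 hours (DMSO typically 0.2%). Viability was read by CellTiter-Glo 2.0 luminescence and scaled as inhibition from 0 (vehicle wells) to 1 (blank wells). Combination Emax is the second-highest inhibition in the matrix; Bliss excess is observed combination effect minus expected EA + EB − EA·EB, EA and EB being single-agent effects.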

[2] = test system: GCT (Other Solid Carcinomas)
Procedure, shortened: as §1

[3] = test system: NCI-H1703 (Squamous Cell Lung Carcinoma)
Procedure, shortened: as §1

[4] = test system: DU-4475 (Breast Carcinoma)
Procedure, shortened: as §1

[5] = test system: HT55 (Colorectal Carcinoma)
Procedure, shortened: as §1

[6] = test system: JVM-2 (B-Cell Non-Hodgkin's Lymphoma)
Procedure, shortened: as §1

[7] = test system: EW-16 (Ewing's Sarcoma)
Procedure, shortened: as §1

[8] = test system: LU-165 (Small Cell Lung Carcinoma)
Procedure, shortened: as §1

[9] = test system: COLO-792 (Melanoma)
Procedure, shortened: as §1

[10] = test system: NCI-H716 (Colorectal Carcinoma)
Procedure, shortened: as §1

[11] = test system: NB13 (Neuroblastoma)
Procedure, shortened: as §1

[12] = test system: CGTH-W-1 (Thyroid Gland Carcinoma)
Procedure, shortened: as §1

[13] = test system: A101D (Melanoma)
Procedure, shortened: as §1

[14] = test system: IM-9 (Non-Cancerous)
Procedure, shortened: as §1

[15] = test system: AU565 (Breast Carcinoma)
Procedure, shortened: as §1

[16] = test system: EB2 (Burkitt's Lymphoma)
Procedure, shortened: as §1

[17] = test system: KYSE-140 (Esophageal Squamous Cell Carcinoma)
Procedure, shortened: as §1

[18] = test system: MDA-MB-436 (Breast Carcinoma)
Procedure, shortened: as §1

[19] = test system: 5637 (Bladder Carcinoma)
Procedure, shortened: as §1

[20] = test system: SK-HEP-1 (Hepatocellular Carcinoma)
Procedure, shortened: as §1

| Structure (SMILES) | Bliss excess [1] | Bliss excess [2] | Bliss excess [3] | Bliss excess [4] | Bliss excess [5] | Bliss excess [6] | Bliss excess [7] | Bliss excess [8] | Bliss excess [9] | Bliss excess [10] | Bliss excess [11] | Bliss excess [12] | Bliss excess [13] | Bliss excess [14] | Bliss excess [15] | Bliss excess [16] | Bliss excess [17] | Bliss excess [18] | Bliss excess [19] | Bliss excess [20] |
| --- | --- | --- | --- | --- | --- | --- | --- | --- | --- | --- | --- | --- | --- | --- | --- | --- | --- | --- | --- | --- |
| Cc1c2c(nn1C)CSCc1cc(n(C)n1)CSc1cc(c3ccccc3c1)OCCCc1c(C(=O)O)n(C)c3c-2c(Cl)ccc13 [AZD5991] + Cn1cnc2c(F)c(Nc3ccc(Br)cc3Cl)c(C(=O)NOCCO)cc21 [Selumetinib] (first compound max 1 µM, 7x7, partner max 3 µM) | -0.0382 | 0.0058 | -0.0087 | -0.0018 | 0.043 | 0.0529 | 0.046 | -0.0335 | 0.0234 | 0.0278 | 0.045 | -0.0152 | 0.0482 | 0.0092 | 0.0145 | -0.0046 | -0.015 | -0.0127 | 0.0174 | -0.0484 |
| C[C@@H]1COCCN1c1cc(C2([S@](C)(=N)=O)CC2)nc(-c2ccnc3[nH]ccc23)n1 [AZD6738] + O=C(c1cc(Cc2n[nH]c(=O)c3ccccc23)ccc1F)N1CCN(C(=O)C2CC2)CC1 [Olaparib] (first compound max 10 µM, 7x7, partner max 10 µM) | -0.0162 | -0.0027 | -0.041 | 0.0762 | 0.0204 | -0.0708 | 0.0402 | -0.0714 | 0.0322 | -0.0229 | 0.0511 | 0.0176 | -0.0004 | -0.0255 | 0.005 | -0.0553 | -0.0971 | -0.0176 | -0.0011 | 0.0248 |
| NC1(C(=O)N[C@@H](CCO)c2ccc(Cl)cc2)CCN(c2ncnc3[nH]ccc23)CC1 [Capivasertib] + CC(=O)c1c(C)c2cnc(Nc3ccc(N4CCNCC4)cn3)nc2n(C2CCCC2)c1=O [Palbociclib] (first compound max 10 µM, 7x7, partner max 10 µM) | -0.0462 | -0.0569 | 0.0189 | -0.0335 | -0.0186 | -0.036 | 0.0029 | -0.0886 | -0.0643 | -0.0018 | -0.076 | 0.0111 | 0.0157 | 0.0229 | 0.0521 | -0.0213 | -0.0427 | -0.0267 | -0.0521 | -0.109 |
| NC1(C(=O)N[C@@H](CCO)c2ccc(Cl)cc2)CCN(c2ncnc3[nH]ccc23)CC1 [Capivasertib] + CC(C)n1c(=O)n(C)c2cnc3cc(F)c(-c4ccc(OCCCN5CCCCC5)nc4)cc3c21 [AZD1390] (first compound max 10 µM, 7x7, partner max 0.3 µM) | -0.0802 | -0.0509 | -0.0132 | 0.0233 | -0.0432 | -0.0662 | -0.079 | -0.0456 | -0.0755 | -0.0701 | -0.0584 | -0.0273 | -0.118 | -0.0516 | -0.025 | 0.0109 | -0.033 | -0.0625 | -0.052 | -0.0321 |
| NC1(C(=O)N[C@@H](CCO)c2ccc(Cl)cc2)CCN(c2ncnc3[nH]ccc23)CC1 [Capivasertib] + CCN(CCO)CCCOc1ccc2c(Nc3cc(CC(=O)Nc4cccc(F)c4)[nH]n3)ncnc2c1 [AZD2811] (first compound max 10 µM, 7x7, partner max 1 µM) | -0.0695 | -0.0017 | -0.0237 | 0.0487 | -0.0412 | -0.142 | -0.014 | -0.0323 | 0.0486 | -0.0402 | -0.007 | 0.0234 | -0.0282 | -0.0686 | -0.0229 | -0.0299 | -0.0096 | -0.0424 | -0.101 | -0.0553 |
| NC1(C(=O)N[C@@H](CCO)c2ccc(Cl)cc2)CCN(c2ncnc3[nH]ccc23)CC1 [Capivasertib] + COc1nnc2ccc(N3CCC(c4ccc(OCCN5CCN(C)C(=O)[C@H]5C)cc4)CC3)nn12 [AZD5153] (first compound max 10 µM, 7x7, partner max 1 µM) | 0.0064 | 0.0049 | 0.0357 | 0.02 | -0.0408 | -0.0764 | 0.0283 | -0.0351 | 0.133 | -0.0181 | 0.0532 | 0.0068 | 0.0062 | -0.0708 | 0.0693 | -0.0966 | 0.0298 | -0.0555 | 0.0035 | -0.0784 |
| NC1(C(=O)N[C@@H](CCO)c2ccc(Cl)cc2)CCN(c2ncnc3[nH]ccc23)CC1 [Capivasertib] + C[C@@H]1COCCN1C2=NC(=NC(=C2)C3(CC3)[S@](=N)(=O)C)C4=C5C=CNC5=NC=C4 [AZD6738] (first compound max 10 µM, 7x7, partner max 10 µM) | -0.0533 | -0.0719 | -0.0292 | 0.0226 | -0.0531 | -0.0607 | 0.0116 | -0.01 | 0.0487 | -0.0317 | -0.0823 | -0.0508 | -0.107 | -0.0514 | -0.0126 | -0.0714 | -0.0846 | -0.0473 | -0.0846 | -0.0744 |
| NC1(C(=O)N[C@@H](CCO)c2ccc(Cl)cc2)CCN(c2ncnc3[nH]ccc23)CC1 [Capivasertib] + Cn1cnc2c(F)c(Nc3ccc(Br)cc3Cl)c(C(=O)NOCCO)cc21 [Selumetinib] (first compound max 10 µM, 7x7, partner max 10 µM) | -0.0199 | -0.0354 | 0.0358 | 0.0066 | -0.0042 | 0.0533 | 0.0097 | -0.0404 | 0.0139 | 0.119 | -0.0062 | 0.0262 | 0.0628 | -0.0169 | 0.0183 | -0.0049 | -0.0003 | 0.0258 | -0.0187 | -0.0083 |
| COc1cccc2c1C(=O)c1c(O)c3c(c(O)c1C2=O)C[C@@](O)(C(=O)CO)C[C@@H]3O[C@H]1C[C@H](N)[C@H](O)[C@H](C)O1 [Doxorubicin] + Cc1cc2ncnn2cc1Nc1ncc2c(n1)n(C1CCOCC1)c(=O)n2C [AZD7648] (first compound max 1 µM, 7x7, partner max 10 µM) | 0.102 | 0.0589 | 0.0451 | 0.143 | 0.0622 | 0.071 | 0.0933 | -0.0534 | -0.0081 | 0.0113 | 0.0808 | 0.0333 | 0.0232 | 0.127 | 0.0753 | 0.0972 | 0.05 | 0.0122 | 0.0902 | 0.0292 |
| CS(=O)(=O)CCNCc1ccc(-c2ccc3ncnc(Nc4ccc(OCc5cccc(F)c5)c(Cl)c4)c3c2)o1 [Lapatinib] + C[C@@H](Oc1cc(-c2cnn(C3CCNCC3)c2)cnc1N)c1c(Cl)ccc(F)c1Cl [Crizotinib] (first compound max 10 µM, 7x7, partner max 10 µM) | -0.0577 | -0.0251 | -0.0733 | -0.0077 | -0.0412 | -0.0131 | -0.0562 | -0.0858 | -0.0237 | -0.0217 | -0.0778 | -0.0294 | -0.0587 | -0.0378 | -0.0287 | -0.0705 | -0.0083 | -0.0237 | -0.0285 | -0.0259 |
| CC(=O)c1c(C)c2cnc(Nc3ccc(N4CCNCC4)cn3)nc2n(C2CCCC2)c1=O [Palbociclib] + CC1(C)CCC(CN2CCN(c3ccc(C(=O)NS(=O)(=O)c4ccc(NCC5CCOCC5)c([N+](=O)[O-])c4)c(Oc4cnc5[nH]ccc5c4)c3)CC2)=C(c2ccc(Cl)cc2)C1 [Venetoclax] (first compound max 10 µM, 7x7, partner max 1 µM) | -0.0529 | 0.0353 | 0.0004 | -0.0162 | 0.0107 | -0.0273 | 0.0564 | -0.0502 | 0.0153 | 0.0345 | -0.103 | -0.0219 | -0.0025 | 0.0389 | 0.0161 | -0.044 | -0.0285 | -0.0345 | -0.0149 | -0.167 |
| CC(=O)c1c(C)c2cnc(Nc3ccc(N4CCNCC4)cn3)nc2n(C2CCCC2)c1=O [Palbociclib] + Cc1c2c(nn1C)CSCc1cc(n(C)n1)CSc1cc(c3ccccc3c1)OCCCc1c(C(=O)O)n(C)c3c-2c(Cl)ccc13 [AZD5991] (first compound max 10 µM, 7x7, partner max 1 µM) | -0.0422 | -0.049 | -0.0636 | 0.0238 | 0.0046 | -0.0206 | -0.0356 | -0.0347 | -0.105 | -0.0343 | 0.0041 | -0.0037 | -0.0091 | 0.0229 | -0.0211 | -0.0352 | -0.0814 | -0.0243 | -0.0342 | 0.0434 |
| CC(=O)c1c(C)c2cnc(Nc3ccc(N4CCNCC4)cn3)nc2n(C2CCCC2)c1=O [Palbociclib] + Cn1cnc2c(F)c(Nc3ccc(Br)cc3Cl)c(C(=O)NOCCO)cc21 [Selumetinib] (first compound max 10 µM, 7x7, partner max 10 µM) | -0.0455 | -0.0369 | 0.0303 | -0.0446 | 0.0782 | 0.0271 | -0.0095 | -0.0518 | -0.0127 | -0.0843 | -0.0391 | -0.036 | -0.0907 | 0.0248 | 0.0052 | -0.018 | -0.0387 | 0.0157 | -0.0288 | -0.114 |
| COc1cccc(OCCCN)c1-c1cc(Nc2cnc(C#N)cn2)n[nH]1 [Prexasertib] + C=CCn1c(=O)c2cnc(Nc3ccc(N4CCN(C)CC4)cc3)nc2n1-c1cccc(C(C)(C)O)n1 [AZD1775] (first compound max 1 µM, partner max 1 µM) | 0.0613 | 0.0294 | 0.066 | 0.114 | 0.0259 | -0.0174 | 0.155 | -0.0566 | 0.0236 | 0.0167 | -0.0347 | 0.0632 | 0.0932 | 0.0644 | 0.0991 | 0.0249 | 0.0329 | 0.165 | 0.0167 | 0.0775 |
| COc1cccc(OCCCN)c1-c1cc(Nc2cnc(C#N)cn2)n[nH]1 [Prexasertib] + CCc1c2c(nc3ccc(O)cc13)-c1cc3c(c(=O)n1C2)COC(=O)[C@]3(O)CC [SN-38] (first compound max 1 µM, 7x7, partner max 0.3 µM) | 0.022 | -0.0185 | -0.0374 | 0.0035 | 0.0552 | -0.0493 | -0.0002 | -0.0618 | 0.087 | 0.0825 | 0.0263 | -0.0566 | -0.0308 | 0.0077 | -0.0213 | -0.0439 | -0.0076 | -0.003 | 0.0891 | -0.0339 |
